Legend:
[1] = instrument: TW, calibrated with phosphatidylcholines (ESI+) and phosphatidylethanolamines (ESI-), doubly charged cardiolipins calibrated with poly-DL-…
[2] = [M+H]+; instrument: TW
[3] = instrument: DT, stepped-field

| SMILES | collision cross section (N2) ([1]; [M-H]-) | collision cross section (N2) ([1]; [M-2H]2-) | collision cross section (N2) [2] | further results |
| --- | --- | --- | --- | --- |
| CCCCCC/C=C\CCCCCCCC(=O)OC[C@H](COP(=O)(O)OCCNC(=O)CCCCCCCCCCCCCCC)OC(=O)CCCCCCCCCCCCCCCCC [AcylPE(50:1)] | 323.73 Å² |  |  | collision cross section (N2) ([1]; [M+Na]+): 330.1 Å² |
| CCCCCC/C=C\CCCCCCCC(=O)OC[C@H](COP(=O)(O)OC[C@@H](O)COC(=O)CCCCCCCCCCCCCCC)OC(=O)CCCCCCCCCCCCCC [AcylPG(47:1)] | 313.72 Å² |  |  | collision cross section (N2) ([1]; [M+Na]+): 326 Å² |
| CCCCCC/C=C\CCCCCCCC(=O)OC[C@H](COP(=O)(O)OC[C@@H](O)COC(=O)CCCCCCCCCCCCCCC)OC(=O)CCCCCCC/C=C\CCCCCCCC [AcylPG(50:2)] | 322.71 Å² |  |  | collision cross section (N2) ([1]; [M+Na]+): 333.1 Å² |
| CCCCCC/C=C\CCCCCCCC(=O)OC[C@H](COP(=O)(O)OC[C@@H](O)COC(=O)CCCCCCCCCCCCCCC)OC(=O)CCCCCCC/C=C\CCCCCCCCCC [AcylPG(52:2)] | 330.34 Å² |  |  |  |
| CCCCCC/C=C\CCCCCCCC(=O)OC[C@H](O)COP(=O)(O)OC[C@@H](COC(=O)CCCCCCC/C=C\CCCCCC)OC(=O)CCCCCCC/C=C/CCCCCCCCCC [AcylPG(52:3)] | 328.87 Å² |  |  |  |
| CCCCCC/C=C\CCCCCCCC(=O)OC[C@H](O)COP(=O)(O)OC[C@@H](COC(=O)CCCCCCC/C=C\CCCCCC)OC(=O)CCCCCCCC1CC1CCCCCCCCCC (some centres not stated) [AcylPG(53:3)] | 332.67 Å² |  |  |  |
| CCCCCC/C=C\CCCCCCCC(=O)OC(COC(=O)CCCCCCCCCCCCCCC)COP(=O)(O)OCC(O)COP(=O)(O)OCC(COC(=O)CCCCCCCCCCCCC)OC(=O)CCCCCCCCCCCCCCC (configuration not stated) [CL(62:1)] |  |  |  | collision cross section (N2) ([1]; [M+2K]2+): 419.8 Å² |
| CCCCCC/C=C\CCCCCCCC(=O)OC(COC(=O)CCCCCCCCCCCCC)COP(=O)(O)OCC(O)COP(=O)(O)OCC(COC(=O)CCCCCCCCCCCCCCC)OC(=O)CCCCCCC/C=C\CCCCCC (configuration not stated) [CL(62:2)] |  |  |  | collision cross section (N2) ([1]; [M+2K]2+): 418.5 Å² |
| CCCCCC/C=C\CCCCCCCC(=O)OC(COC(=O)CCCCCCCCCCCCCCC)COP(=O)(O)OCC(O)COP(=O)(O)OCC(COC(=O)CCCCCCCCCCCCCC)OC(=O)CCCCCCCCCCCCCCC (configuration not stated) [CL(63:1)] |  | 394.72 Å² |  | collision cross section (N2) ([1]; [M+2K]2+): 421.5 Å² |
| CCCCCC/C=C\CCCCCCCC(=O)OC(COC(=O)CCCCCCCCCCCCCC)COP(=O)(O)OCC(O)COP(=O)(O)OCC(COC(=O)CCCCCCCCCCCCCCC)OC(=O)CCCCCCC/C=C\CCCCCC (configuration not stated) [CL(63:2)] |  | 394.34 Å² |  | collision cross section (N2) ([1]; [M+2K]2+): 421 Å² |
| CCCCCC/C=C\CCCCCCCC(=O)OCC(COP(=O)(O)OCC(O)COP(=O)(O)OCC(COC(=O)CCCCCCCCCCCCCCC)OC(=O)CCCCCCC/C=C\CCCCCC)OC(=O)CCCCCCC/C=C\CCCCCC (configuration not stated) [CL(64:3)] |  | 397.47 Å² |  |  |
| CCCCCC/C=C\CCCCCCCC(=O)OCC(COP(=O)(O)OCC(O)COP(=O)(O)OCC(COC(=O)CCCCCCCCCCCCCCC)OC(=O)CCCCCCCC1CC1CCCCCC)OC(=O)CCCCCCC/C=C\CCCCCC (configuration not stated) [CL(65:3)] |  | 400.07 Å² |  | collision cross section (N2) ([1]; [M+2K]2+): 424.2 Å² |
| CCCCCC/C=C\CCCCCCCC(=O)OC(COC(=O)CCCCCCCCCCCCCCC)COP(=O)(O)OCC(O)COP(=O)(O)OCC(COC(=O)CCCCCCCCCCCCCCC)OC(=O)CCCCCCC/C=C\CCCCCCCC (configuration not stated) [CL(66:2)] |  | 402.26 Å² |  | collision cross section (N2) ([1]; [M+2K]2+): 426.8 Å² |
| CCCCCC/C=C\CCCCCCCC(=O)OCC(COP(=O)(O)OCC(O)COP(=O)(O)OCC(COC(=O)CCCCCCCCCCCCCCC)OC(=O)CCCCCCC/C=C\CCCCCCCC)OC(=O)CCCCCCC/C=C\CCCCCC (configuration not stated) [CL(66:3)] |  | 401.91 Å² |  | collision cross section (N2) ([1]; [M+2K]2+): 425.7 Å² |
| CCCCCC/C=C\CCCCCCCC(=O)OCC(COP(=O)(O)OCC(O)COP(=O)(O)OCC(COC(=O)CCCCCCC/C=C\CCCCCC)OC(=O)CCCCCCC/C=C\CCCCCCCC)OC(=O)CCCCCCC/C=C\CCCCCC (configuration not stated) [CL(66:4)] |  | 401.68 Å² |  |  |
| CCCCCCCC/C=C\CCCCCCCC(=O)OC(COC(=O)CCCCCCCCCCCCCCC)COP(=O)(O)OCC(O)COP(=O)(O)OCC(COC(=O)CCCCCCCC1CC1CCCCCC)OC(=O)CCCCCCCCCCCCCCC (configuration not stated) [CL(67:2)] |  | 404.3 Å² |  | collision cross section (N2) ([1]; [M+2K]2+): 427.9 Å² |
| CCCCCCCC/C=C\CCCCCCCC(=O)OCC(COP(=O)(O)OCC(O)COP(=O)(O)OCC(COC(=O)CCCCCCCCCCCCCCC)OC(=O)CCCCCCC/C=C\CCCCCCCC)OC(=O)CCCCCCCCCCCCCCC (configuration not stated) [CL(68:2)] |  | 407.34 Å² |  |  |

| SMILES | collision cross section (N2) ([1]; [M-H]-) | collision cross section (N2) ([1]; [M-2H]2-) | collision cross section (N2) [2] | further results |
| --- | --- | --- | --- | --- |
| CCCCCC/C=C\CCCCCCCC(=O)OC(COC(=O)CCCCCCC/C=C\CCCCCCCC)COP(=O)(O)OCC(O)COP(=O)(O)OCC(COC(=O)CCCCCCCCCCCCCCC)OC(=O)CCCCCCC/C=C\CCCCCCCC (configuration not stated) [CL(68:3)] |  | 407.14 Å² |  |  |
| CCCCCCCCCCCCCC(=O)O[C@H](CO)COP(=O)([O-])OCC[NH3+] [LPE(0:0/14:0)] | 198.83 Å² |  |  | collision cross section (N2) ([1]; [M+H]+): 208.79 Å²; collision cross section (N2) ([1]; [M+Na]+): 213.66 Å² |
| CCCCC1CC1CCCCCCCC(=O)O[C@H](CO)COP(=O)([O-])OCC[NH3+] (some centres not stated) [LPE(0:0/15:1)] | 199.81 Å² |  |  |  |
| CCCCCCCCCCCCCCCC(=O)O[C@H](CO)COP(=O)([O-])OCC[NH3+] [LPE(0:0/16:0)] | 206.05 Å² |  |  | collision cross section (N2) ([1]; [M+H]+): 216.39 Å²; collision cross section (N2) ([1]; [M+Na]+): 220.61 Å² |
| CCCCCC/C=C/CCCCCCCC(=O)O[C@H](CO)COP(=O)([O-])OCC[NH3+] [LPE(0:0/16:1)] | 203.66 Å² |  |  | collision cross section (N2) ([1]; [M+H]+): 208.94 Å²; collision cross section (N2) ([1]; [M+Na]+): 212.72 Å² |
| CCc1cccc(C)c1N(C(=O)CCl)C(C)COC (configuration not stated) [Metolachlor] |  |  | 158.23 Å² | collision cross section (N2) ([3]; [M+H]+): 161.46 Å²; collision cross section (N2) ([3]; [M+Na]+): 175.84 Å² |
| CSc1nnc(C(C)(C)C)c(=O)n1N [Metribuzin] |  |  | 146.95 Å² | collision cross section (N2) ([3]; [M+H]+): 150.5 Å²; collision cross section (N2) ([3]; [M+Na]+): 171.27 Å² |
| Cc1cc(NS(=O)(=O)c2ccc(N)cc2)no1 [Sulfamethoxazole] |  |  | 146.3 Å² |  |
| Nc1ccc(S(=O)(=O)Nc2ccccn2)cc1 [Sulfapyridine] |  |  | 142.3 Å² |  |
| Nc1ccc(S(=O)(=O)Nc2cnc3ccccc3n2)cc1 [Sulfaquinoxaline] |  |  | 164.8 Å² |  |
| O=C(NC(=O)c1c(F)cccc1F)Nc1cc(Cl)c(F)c(Cl)c1F [Teflubenzuron] |  |  | 171.81 Å² |  |
| CC/C(=N\OC/C=C/Cl)C1=C(O)CC(C2CCOCC2)CC1=O (configuration not stated) [Tepraloxydim] |  |  | 184.74 Å² |  |
| FC(F)C(F)(F)OCC(Cn1cncn1)c1ccc(Cl)cc1Cl (configuration not stated) [Tetraconazole] |  |  | 174.34 Å² |  |
| C=C[C@]1(C)C[C@@H](OC(=O)CSCCN(CC)CC)C2(C)C(C)CC[C@]3(CCC(=O)[C@@H]23)[C@@H](C)[C@@H]1O (some centres not stated) [Tiamulin] |  |  | 218.9 Å² |  |
| CCOC(=O)C1CC(=O)C(=C(O)C2CC2)C(=O)C1 (configuration not stated) [Trinexapac-ethyl] |  |  | 152.92 Å² |  |
| C=C[C@]1(C)C[C@@H](OC(=O)CSC(C)(C)CNC(=O)[C@H](N)C(C)C)[C@]2(C)[C@H](C)CC[C@]3(CCC(=O)[C@H]32)[C@@H](C)[C@@H]1O [Valnemulin] |  |  | 233.3 Å² |  |

From the C3SDB collision cross section collection
